Where two headings read alike, the source gives them in different places.
Columns and labels:
[1] = system: H460 cells; assay: Cell proliferation assay (MTT); format: cell-based, human
Procedure: All cell lines used in this study were maintained under standard conditions of temperature (37° C.), humidity (95%), and carbon dioxide (5%). Human primary bronchial epithelial cells, NHBE (BEC) (Cambrex, CC-2541) were grown in BEGM (Bronchial Epithelial cell growth media) BulletKit (Cambrex, CC-3170). Human primary mammary epithelial cells, HMEC (Clonetics, CC-2551) were grown in MEBM medium supplemented with a bullet kit (Clonetics, CC-3150). Epithelial non-small lung cancer cells H460 and H1299, and small cell lung cancer cell lines H510 and H82 were maintained in RPMI supplemented with 10% Fetal Bovine Serum (FBS) (Life Technologies, Grand Island, N.Y.).
(§1) Cells were seeded on 96-well plates (BD, Falcon, Bioscience, San Jose, Calif., USA) at a density of 6000 cells/well, and incubated for 24 h under standard conditions. Then, cells were treated with different concentrations of the ChoK inhibitors (quadruplicates of each concentration) and maintained for 72 hours. […] Absorbance is read at 595 nm in a VersaMax Microplate Reader (Molecular Devices, Sunnyvale, Calif., USA). For sensitization with acid ceramidase inhibitor, cells were pre-treated […] with the correspondent IC50 for NOE before treatment with ChoK inhibitors. NOE (N-Oleoyl ethanolamine) was obtained from Calbiochem (La Jolla, Calif., USA).
Thus, disruption in the levels of acid ceramidase may allow ChoK inhibitors to have a better effect in these cells. To verify this hypothesis, we used the previously characterized acid ceramidase inhibitor, N-Oleoylethanolamine (NOE) (Grijalvo S., Chem Phys Lipids. 2006; 144:69-84), to investigate if the inhibition of acid ceramidase sensitizes tumour cell lines to ChoK inhibitors. To that end, H460 cells were pre-treated with NOE for three hours to inhibit acid ceramidase.
H460 cells were pre-treated with these compounds for three hours to inhibit ceramidases. […] Furthermore, the combined use of ChoK inhibitors and acid ceramidase inhibitors provides a further stronger anticancer activity.

[2] = system: primary cultures of tumours of patients with NSCLC; assay: Primary cultures of NSCLC tumours, crystal violet quantification; format: cell-based, human; conditions: primary NSCLC tumour cultures, 0-20 μM, 10 days
Procedure: Resected tissues from NSCLC patients were dissociated (Cell dissociation sieve-tissued grinder Kit CD1, SIGMA), and the obtained cells were seeded in 24 well plates (BD, Falcon, Bioscience, San Jose, Calif., USA). […] The final persistent population in each well was quantified by the method of Cristal Violet as previously described (Rodríguez-González, A. et al., Oncogene, 22:8803-8812). […]

[3] = system: HT29 colon cancer cells; assay: QT-PCR validation of 5-FU metabolization pathway genes; format: cell-based, human; set-up: key: DR (Down-regulation); UR (Up-regulation)
Procedure: (§2) 1 μg of RNA was used to generate cDNA using High-Capacity cDNA Archive Kit (Applied Biosystems), and quantitative real-time PCR was carried out in triplicate using the ABI PRISM 7700 Sequence Detector (Applied Biosystems). GAPDH and 18S ribosomal mRNA were amplified as internal controls. Probes used for amplification were from Applied Biosystems as Taqman Gene Expression Assays (ASAH1: HS00602774—M1 Taqman Probe, ASAH2: HS00184096_M1 Taqman Probe and ASAH3: HS00370322_M1 Taqman Probe, DUT: HS00798995_S1 Taqman Probe, TYMS: HS00426591_M1 Taqman Probe, UPP1: HS00427695—M1 Taqman Probe, RRM2: HS00357247_G1 Taqman Probe). The 2-^ΔΔCt method was used (Livak K J., Methods. 2001; 25:402-8) to calculate the relative expression of each gene.

[4] = system: DLD-1 colon cancer cells; assay: as above; format: cell-based, human; set-up: key: DR (Down-regulation); UR (Up-regulation)
Procedure: as §2

[5] = system: SW62 colon cancer cells; assay: as above; format: cell-based, human; set-up: key: DR (Down-regulation); UR (Up-regulation)
Procedure: as §2

[6] = system: H460 xenografts; assay: NSCLC xenografts, in vivo tumor growth inhibition
Procedure: Indicated cells were resuspended in DMEM just before inoculation (10^6 cells/0.1 ml), and injected subcutaneously in nu/nu immunosuppressed mice. Mice were kept under standard laboratory conditions according to the guidelines of the Spanish Government. When tumours reached a mean volume of 0.1 cm^3, mice were randomized to control and treated groups. Treatments with the antitumoral agents (and vehicle for control mice) were performed i.p. with following the indicated schedules. Tumors were monitored three times a week by measuring the major (D) and minor (d) diameters, and tumour volume was calculated by V=(D*d^2)/2. Statistical analysis of significant changes in tumour growth was calculated using SPSS software v. 13.0.

[7] = system: SW620 cells; assay: MTT cytotoxicity, ChoKI and TRAIL
Procedure: For this purpose, cells were seeded in 96 multiwell plates at a density of 1×10^4 cells/well 24 hours before treatment. Cells were treated with different concentrations of RSM-932A (ChoKI) or TRAIL for different times and the cell proliferation was quantified using the MTT [3-(4,5-Dimethylthiazol-2-yl)-2,5-Diphenyltetrazolium Bromide] colorimetric assay.

[8] = system: H460 cells; assay: Affymetrix gene expression analysis of 5-FU metabolization pathway; format: cell-based, human; set-up: key to RRM2 (Ribonucleotide Reductase) gene expression / TYMS (Thymidylate synthetase) gene expression / DUT (Deoxyuridine triphosphatase) gene expression: Signal Log Ratio, base 2 (1.0 = 2-fold increase, 0 = no change)
Procedure: The RNAs from the biopsies selected were isolated for microarrays and QT-PCR, using RNeasy Mini Kit (QIAGEN, Hilden, Germany) following the instructions of the manufactures. Samples were prepared and the array hybridized according to the Affymetrix GeneChip Expression Analysis Technical Manual. Hybridization to Affymetrix U133plus2 GeneChips (54,614 probe sets, representing 47,000 transcripts), staining, washing and scanning procedures were carried out at the Genomic Facility in the National Center of Biotechnology (Madrid, Spain) as described in www.affymetrix.com (Affymetrix, Santa Clara, Calif.). The Signal Log Ratio estimates the magnitude and direction of change of a transcript. The log scale used is base 2, thus a Signal Log Ratio of 1.0 indicates an increase of the transcript level by 2 fold and −1.0 indicates a decrease by 2 fold. A Signal Log Ratio of zero would indicate no change.
With the aim of further investigating the mechanism of ChoKIs sensitization to the antitumoral effect of 5-FU, a gene expression analysis of the 5-FU-metabolisation pathway was performed in H460 cells treated at different times with MN58b and RSM-932A using affymetrix technology.

[9] = system: H460 MN58R cells; assay: Cell proliferation assay (MTT); format: cell-based, human
Procedure: (§3) Cell lines resistant to MN58b and RSM-932A (identified as MN58R and RSM-932A-R, respectively) were generated by prolonged continuous exposure to increasing concentrations of each drug. A parallel control (H460 stock) of the cell line in the absence of the compounds was kept in culture for the same time.
as §1
(§4) To further study the mechanism underlying resistance to ChoK inhibition, as well as the implication of acid ceramidase in this effect, we used the human NSCLC-derived H460 cell line for a set of in vitro experiments. Maintaining this cell line in culture for 9 months with slightly increasing doses cycles of MN58b and a second-generation ChoKα inhibitor, RSM-932A, we established new cell lines with acquired resistance to these ChoKα inhibitors. A control cell line (H460 stock) was also established maintaining H460 in culture for the same time without treatment. Thus, established cells resistant to MN58b (H460 MN58R) and resistant to RSM-932A (H460 RSM-932A-R) were not affected at concentrations where normal H460 cells or control H460stock cells were dramatically affected. […] Furthermore, we found a strong cross-resistance between both ChoK inhibitors as it could be expected due to the similar mechanisms of action of these two antitumoral drugs (Table 9).

[10] = system: H460stock cells; assay: Cell proliferation assay (MTT); format: cell-based, human
Procedure: as §3, §1, §4

[11] = system: H460 RSM-932AR cells; assay: Cell proliferation assay (MTT); format: cell-based, human
Procedure: as §3, §1, §4

[12] = system: DLD-1 cells; assay: Apoptosis detection by flow cytometry, Annexin V & IP; format: cell-based, human; conditions: DLD-1, 7 hours treatment
Procedure: Cell death was analysed by flow cytometry using de Aposcreen Annexin V Apoptosis Kit (Southern Biotech) according to manufacturer procedures. Cells were seeded at 4×10^5 cells per well in six-well. Twenty-four hours later, cells were treated with the indicated compounds. Cells were rinsed twice in cold PBS and after removing it cells were resuspended in cold 1× binding buffer to a concentration from 1×10^6 to 1×10^7 cells/mL. 100 μl of these cells were collected in a flow cytometry tube and 10 μl of Annexin V were added. After gently vortexing, tubes were incubated for 15 minutes on ice, protected from light. Without washing, 380 μl of 1× binding buffer were added to each sample prior to 10 μl of propidium iodine. Cells were immediately analysed by flow cytometry.
The synergism observed in vitro was also analysed by flow cytometry using Annexin V & IP staining to distinguish between apoptosis and necrosis or late apoptosis. […] When DLD-1 cells are treated with TRAIL alone there is a 35% of apoptosis. In combination tumour cell death is amplified up to 50%. When DLD-1 are treated with RSM-932A (TCD-717) in combination with TRAIL there is a 55% increase in tumour cell death but mainly the necrotic or late apoptosis population because RSM-932A (TCD-717) has an effect that is faster than MN58. […]

[13] = FIG. 7B, combination given sequentially

## CCCCCCCCCCCCCC(=O)N[C@H](C)[C@@H](O)c1ccccc1 [DEM, (1S,2R)-N-myristoylamino-phenylpropanol-1, reference compound]
[1]; combinations: pre-treated with ceramidase inhibitor for three hours, then ChoK inhibitor, read-out: IC50 (72 h)
  IC 50: 31 µM

## CC(=O)O[C@H]1C(=O)[C@@]2(C)[C@H]([C@H](OC(=O)c3ccccc3)[C@]3(O)C[C@H](OC(=O)[C@H](O)[C@@H](NC(=O)c4ccccc4)c4ccccc4)C(C)=C1C3(C)C)[C@]1(OC(C)=O)CO[C@@H]1C[C@@H]2O [Taxol]
[2]
  RESISTANT (number of samples): 35
  SENSITIVES (number of samples): 27

## CCCCCCCCCCCCCC(=O)N[C@H](CO)[C@H](O)c1ccc([N+](=O)[O-])cc1 [CAY, (1R,2R)-N-myristoylamino-4′-nitro-phenylpropandio1-1,3, reference compound]
[1]; Homo sapiens, NCI-H460, combinations: pre-treated with ceramidase inhibitor for three hours, then ChoK inhibitor, read-out: IC50 (72 h)
  IC 50: 28 µM

## CCC1=C[C@@H]2CN(C1)Cc1c([nH]c3ccccc13)[C@@](C(=O)OC)(c1cc3c(cc1OC)N(C)[C@H]1[C@@](O)(C(=O)OC)[C@H](OC(C)=O)[C@]4(CC)C=CCN5CC[C@]31[C@@H]54)C2 [Vinolrelbine, vinorelbine]
[2]
  RESISTANT (number of samples): 24
  SENSITIVES (number of samples): 15

## CN(c1ccc(Cl)cc1)c1cc[n+](Cc2ccc(-c3ccc(C[n+]4ccc(N(C)c5ccc(Cl)cc5)c5ccccc54)cc3)cc2)c2ccccc12.[Br-].[Br-] [RSM-932A, 1,1′-(biphenyl-4, 4′-diylmethylene) bis[4-(4-chloro-N-methylanilino-)quinolinium]dibromide]
[3]
  DUT expression: DR
  RRM expression: DR
  TYM expression: DR
  UPP expression: UR
[4]
  DUT expression: DR
  RRM expression: DR
  TYM expression: DR
  UPP expression: UR
[5]
  DUT expression: DR
  RRM expression: DR
  TYM expression: DR
  UPP expression: UR
[6]; [13]
  Statistical significance (p), tumour growth: 0.157
[7]; SW620, combination: ChoKI pre-treatment 2 hours, then TRAIL 24 h
  cytotoxicity, percentage of cell death: 9%
[8]; H460, 9 h
  DUT (Deoxyuridine triphosphatase) gene expression: −1.12
  RRM2 (Ribonucleotide Reductase) gene expression: −1.39
  TYMS (Thymidylate synthetase) gene expression: −1.03
  UPP1 (Uridine phosphorylase 1) gene expression: +1.83
[8]; H460, 24 h
  DUT (Deoxyuridine triphosphatase) gene expression: −2.08
  RRM2 (Ribonucleotide Reductase) gene expression: −3.69
  TYMS (Thymidylate synthetase) gene expression: −2.73
  UPP1 (Uridine phosphorylase 1) gene expression: +2.48

## N.N.[Cl][Pt][Cl] [Cisplatin, cisplatin, reference compound]
[9]
  IC 50: 2 µg/mL
[10]
  IC 50: 4.5 µg/mL
[11]
  IC 50: 1.5 µg/mL
[2]
  RESISTANT (% of samples): 50%
  RESISTANT (number of samples): 31
  SENSITIVES (% of samples): 50%
  SENSITIVES (number of samples): 31
[1]
  IC 50: 5 µg/mL
[6]; FIG. 7A, single agents
  Statistical significance (p), tumour growth: 0.3
[6]; [13]
  Statistical significance (p), tumour growth: 0.441

## Nc1ccn([C@@H]2O[C@H](CO)[C@@H](O)C2(F)F)c(=O)n1 [Gemcitabine, gemcitabine]
[2]
  RESISTANT (number of samples): 34
  SENSITIVES (number of samples): 18

B1: TRAIL: extracellular domain of human TRAIL (amino acids 95-281) (protein, listed as Homo sapiens)
chain: TSEETISTVQEKQQNISPLVRERGPQRVAAHITGTRGRSNTLSSPNSKNEKALGRKINSWESSRSGHSFLSNLHLRNGELVIHEKGFYYIYSQTYFRFQEEIKENTKNDKQMVQYIYKYTSYPDPILLMKSARNSCWSKDAEYGLYSIYQGGIFELKENDRIFVSVTNEHLIDMDHEASFFGAFLVG
[7]; SW620, FIG. 8B
  sensitivity to TRAIL: nearly resistant
[12]
  apoptosis: 35%
